System: subjects with mIDH1 advanced AML
Test: Phase I study: safety and tolerability (TEAE, DLT, MTD, ECG)
Assay type: in vivo
Experimental: This study was an open-label, nonrandomized, multicenter phase I trial. Subjects were screened at 13 hospital sites in 2 countries (USA and Germany). The study was to consist of dose-escalation followed by dose-expansion. The MTD identified in dose-escalation was to be used in the dose-expansion. If MTD was not reached in dose-escalation, a dose for the expansion would be selected based on available PK, pharmacodynamic, safety, and efficacy data. BAY1436032 was administered twice-daily (BID) in continuous 28-day cycles. In dose-escalation, up to 9 evaluable subjects could be enrolled per cohort, with a minimum of 3 dose-limiting toxicity (DLT)-free evaluable subjects required prior to escalating to the next highest dose. Bayesian dose-DLT modeling was performed to help guide dosing decisions.
DLTs were differentially defined for nonhematopoietic versus hematopoietic toxicities. Nonhematopoietic toxicities of ≥grade 3 occurring during the first cycle of treatment were to be considered DLTs with the following exceptions: (1) Alopecia and nausea controlled by medical management; (2) Tumor lysis syndrome if successfully managed clinically and resolved within 7 days without any end-organ damage; (3) Differentiation syndrome (DS) if successfully managed clinically and resolved within 7 days without any end-organ damage; (4) Asymptomatic ≥grade 3 electrolyte abnormalities not considered clinically significant by the investigator. […] For certain toxicities such as laboratory assessments without a clear clinical correlate, a discussion between the investigator and the sponsor determined whether the adverse event (AE) should be assessed as a DLT.
DLTs identified during the first cycle of treatment were used to guide dose-escalation decisions and to determine the MTD, and if safety issues appeared in subsequent cycles they were also to be considered. Hydroxyurea was permitted during the first cycle if white blood cell (WBC) exceeded 20 × 10^9/L and was also permitted for treatment of DS.
Safety and tolerability were evaluated by analysis of adverse events, physical examinations, vital signs, ECOG performance status, and various laboratory assessments. For safety monitoring, subjects were scheduled for clinic visits every week for the initial three cycles of treatment, after which time visits could be reduced to every-other-week with investigator and sponsor agreement. Cardiac function was assessed with triplicate 12-lead electrocardiograms (ECG) at screening, C1-D1, C1-D2, C1-D15, D1 of every subsequent cycle, and at treatment end. […] AEs are presented by the Medical Dictionary for Regulatory Activities (MedDRA) v21.1.

`C[C@H]1C[C@@H](n2c(Nc3ccc(OC(F)(F)F)cc3)nc3cc(CCC(=O)O)ccc32)CC(C)(C)C1` [BAY1436032] was tested, and the “TEAE Decreased appetite Grade 1” value (600 mg BID, n=4) was 0, the “TEAE Decreased appetite Grade 2” value (600 mg BID, n=4) was 0 and the “TEAE Decreased appetite Grade 3” value (600 mg BID, n=4) was 0. For the same molecule, the “TEAE Diarrhea Grade 1” value (600 mg BID, n=4) was 0, the “TEAE Diarrhea Grade 2” value (600 mg BID, n=4) was 0 and the “TEAE Dry skin Grade 1” value (600 mg BID, n=4) was 1. The “TEAE Dyspnoea Grade 1” value (600 mg BID, n=4) was 0, the “TEAE Dyspnoea Grade 2” value (600 mg BID, n=4) was 0 and the “TEAE Dyspnoea Grade 3” value (600 mg BID, n=4) was 0. The “TEAE Epistaxis Grade 1” value (600 mg BID, n=4) was 1, the “TEAE Epistaxis Grade 2” value (600 mg BID, n=4) was 0 and the “TEAE Epistaxis Grade 3” value (600 mg BID, n=4) was 1. For the same molecule, the “TEAE Fall Grade 1” value (600 mg BID, n=4) was 1, the “TEAE Fatigue Grade 1” value (600 mg BID, n=4) was 1 and the “TEAE Fatigue Grade 2” value (600 mg BID, n=4) was 0. The “TEAE Fatigue Grade 3” value (600 mg BID, n=4) was 0, the “TEAE Febrile neutropenia Grade 3” value (600 mg BID, n=4) was 1 and the “TEAE General physical health deterioration Grade 3” value (600 mg BID, n=4) was 0. For the same molecule, the “TEAE General physical health deterioration Grade 5” value (600 mg BID, n=4) was 0, the “TEAE Gingivitis Grade 1” value (600 mg BID, n=4) was 1 and the “TEAE Haematuria Grade 1” value (600 mg BID, n=4) was 0. For the same molecule, the “TEAE Haematuria Grade 2” value (600 mg BID, n=4) was 1, the “TEAE Haematuria Grade 3” value (600 mg BID, n=4) was 0 and the “TEAE Headache Grade 1” value (600 mg BID, n=4) was 0. The “TEAE Headache Grade 2” value (600 mg BID, n=4) was 0, the “TEAE Headache Grade 3” value (600 mg BID, n=4) was 0 and the “TEAE Hyperkalaemia Grade 1” value (600 mg BID, n=4) was 1. For the same molecule, the “TEAE Hyperkalaemia Grade 4” value (600 mg BID, n=4) was 1, the “TEAE Hypertension Grade 2” value (600 mg BID, n=4) was 0 and the “TEAE Hypertension Grade 3” value (600 mg BID, n=4) was 0. The “TEAE Hyperuricaemia Grade 1” value (600 mg BID, n=4) was 1, the “TEAE Hyperuricaemia Grade 3” value (600 mg BID, n=4) was 1 and the “TEAE Hypokalaemia Grade 1” value (600 mg BID, n=4) was 0. For the same molecule, the “TEAE Hypokalaemia Grade 2” value (600 mg BID, n=4) was 0, the “TEAE Hypokalaemia Grade 3” value (600 mg BID, n=4) was 0 and the “TEAE Hyponatraemia Grade 1” value (600 mg BID, n=4) was 0. The “TEAE Hyponatraemia Grade 3” value (600 mg BID, n=4) was 0, the “TEAE Hypophosphataemia Grade 1” value (600 mg BID, n=4) was 0 and the “TEAE Hypophosphataemia Grade 2” value (600 mg BID, n=4) was 0. The “TEAE Leukocytosis Grade 2” value (600 mg BID, n=4) was 0, the “TEAE Leukocytosis Grade 3” value (600 mg BID, n=4) was 0 and the “TEAE Lung infection Grade 3” value (600 mg BID, n=4) was 1. The “TEAE Lung infection Grade 5” value (600 mg BID, n=4) was 0, the “TEAE Nausea Grade 1” value (600 mg BID, n=4) was 1 and the “TEAE Nausea Grade 2” value (600 mg BID, n=4) was 0. For the same molecule, the “TEAE Nausea Grade 3” value (600 mg BID, n=4) was 0, the “TEAE Oedema peripheral Grade 1” value (600 mg BID, n=4) was 1 and the “TEAE Oedema peripheral Grade 3” value (600 mg BID, n=4) was 0. For the same molecule, the “TEAE Pain in extremity Grade 1” value (600 mg BID, n=4) was 0, the “TEAE Pain in extremity Grade 2” value (600 mg BID, n=4) was 0 and the “TEAE Pneumonia Grade 1” value (600 mg BID, n=4) was 0. The “TEAE Pneumonia Grade 2” value (600 mg BID, n=4) was 0, the “TEAE Pneumonia Grade 3” value (600 mg BID, n=4) was 0 and the “TEAE Pneumonia fungal Grade 2” value (600 mg BID, n=4) was 0. The “TEAE Pneumonia fungal Grade 3” value (600 mg BID, n=4) was 0, the “TEAE Pneumonia fungal Grade 4” value (600 mg BID, n=4) was 0 and the “TEAE Productive cough Grade 1” value (600 mg BID, n=4) was 1. For the same molecule, the “TEAE Productive cough Grade 2” value (600 mg BID, n=4) was 0, the “TEAE Pyrexia Grade 1” value (600 mg BID, n=4) was 1 and the “TEAE Pyrexia Grade 2” value (600 mg BID, n=4) was 1. The “TEAE Pyrexia Grade 3” value (600 mg BID, n=4) was 0, the “TEAE Rash Grade 1” value (600 mg BID, n=4) was 0 and the “TEAE Rash Grade 2” value (600 mg BID, n=4) was 1. The “TEAE Sepsis Grade 4” value (600 mg BID, n=4) was 1, the “TEAE Sepsis Grade 5” value (600 mg BID, n=4) was 0 and the “TEAE Sinus tachycardia Grade 1” value (600 mg BID, n=4) was 0. For the same molecule, the “TEAE Thrombocytopenia Grade 4” value (600 mg BID, n=4) was 0, the “TEAE Vomiting Grade 1” value (600 mg BID, n=4) was 1 and the “TEAE Weight decreased Grade 1” value (600 mg BID, n=4) was 0. The “TEAE Weight decreased Grade 2” value (600 mg BID, n=4) was 1, the “TEAE Weight decreased Grade 3” value (600 mg BID, n=4) was 0 and the “Related TEAE Decreased appetite Grade 1” value (1200 mg BID, n=7) was 0. The “Related TEAE Decreased appetite Grade 2” value (1200 mg BID, n=7) was 0, the “Related TEAE Diarrhea Grade 2” value (1200 mg BID, n=7) was 2 and the “Related TEAE Differentiation syndrome Grade 2” value (1200 mg BID, n=7) was 0. The “Related TEAE Differentiation syndrome Grade 3” value (1200 mg BID, n=7) was 1, the “Related TEAE Dyspnea Grade 1” value (1200 mg BID, n=7) was 1 and the “Related TEAE Dyspnea Grade 2” value (1200 mg BID, n=7) was 0. The “Related TEAE Fatigue Grade 1” value (1200 mg BID, n=7) was 0, the “Related TEAE Fatigue Grade 2” value (1200 mg BID, n=7) was 1 and the “Related TEAE Fatigue Grade 3” value (1200 mg BID, n=7) was 0. The “Related TEAE Hypomagnesaemia Grade 1” value (1200 mg BID, n=7) was 0, the “Related TEAE Nausea Grade 1” value (1200 mg BID, n=7) was 1 and the “Related TEAE Nausea Grade 2” value (1200 mg BID, n=7) was 0. The “Related TEAE Sinus tachycardia Grade 1” value (1200 mg BID, n=7) was 0, the “Related TEAE Vomiting Grade 1” value (1200 mg BID, n=7) was 0 and the “TEAE Abdominal pain upper Grade 1” value (1200 mg BID, n=7) was 0. For the same molecule, the “TEAE Abdominal pain upper Grade 2” value (1200 mg BID, n=7) was 0, the “TEAE Acute kidney injury Grade 1” value (1200 mg BID, n=7) was 0 and the “TEAE Acute kidney injury Grade 2” value (1200 mg BID, n=7) was 0. The “TEAE Acute kidney injury Grade 3” value (1200 mg BID, n=7) was 0, the “TEAE Anaemia Grade 3” value (1200 mg BID, n=7) was 3 and the “TEAE Anaemia Grade 4” value (1200 mg BID, n=7) was 0. For the same molecule, the “TEAE Anxiety Grade 1” value (1200 mg BID, n=7) was 1, the “TEAE Anxiety Grade 2” value (1200 mg BID, n=7) was 0 and the “TEAE Arthralgia Grade 1” value (1200 mg BID, n=7) was 0. For the same molecule, the “TEAE Arthralgia Grade 2” value (1200 mg BID, n=7) was 1, the “TEAE Constipation Grade 1” value (1200 mg BID, n=7) was 1 and the “TEAE Constipation Grade 2” value (1200 mg BID, n=7) was 0. For the same molecule, the “TEAE Contusion Grade 1” value (1200 mg BID, n=7) was 1, the “TEAE Contusion Grade 2” value (1200 mg BID, n=7) was 0 and the “TEAE Cough Grade 1” value (1200 mg BID, n=7) was 0. For the same molecule, the “TEAE Cough Grade 2” value (1200 mg BID, n=7) was 0, the “TEAE Decreased appetite Grade 1” value (1200 mg BID, n=7) was 0 and the “TEAE Decreased appetite Grade 2” value (1200 mg BID, n=7) was 1. The “TEAE Decreased appetite Grade 3” value (1200 mg BID, n=7) was 0, the “TEAE Diarrhea Grade 1” value (1200 mg BID, n=7) was 1 and the “TEAE Diarrhea Grade 2” value (1200 mg BID, n=7) was 2. For the same molecule, the “TEAE Dry skin Grade 1” value (1200 mg BID, n=7) was 1, the “TEAE Dyspnoea Grade 1” value (1200 mg BID, n=7) was 1 and the “TEAE Dyspnoea Grade 2” value (1200 mg BID, n=7) was 1. The “TEAE Dyspnoea Grade 3” value (1200 mg BID, n=7) was 0, the “TEAE Epistaxis Grade 1” value (1200 mg BID, n=7) was 0 and the “TEAE Epistaxis Grade 2” value (1200 mg BID, n=7) was 2. The “TEAE Epistaxis Grade 3” value (1200 mg BID, n=7) was 0, the “TEAE Fall Grade 1” value (1200 mg BID, n=7) was 1 and the “TEAE Fatigue Grade 1” value (1200 mg BID, n=7) was 0. The “TEAE Fatigue Grade 2” value (1200 mg BID, n=7) was 2, the “TEAE Fatigue Grade 3” value (1200 mg BID, n=7) was 0 and the “TEAE Febrile neutropenia Grade 3” value (1200 mg BID, n=7) was 2. The “TEAE General physical health deterioration Grade 3” value (1200 mg BID, n=7) was 0, the “TEAE General physical health deterioration Grade 5” value (1200 mg BID, n=7) was 0 and the “TEAE Gingivitis Grade 1” value (1200 mg BID, n=7) was 0. For the same molecule, the “TEAE Haematuria Grade 1” value (1200 mg BID, n=7) was 1, the “TEAE Haematuria Grade 2” value (1200 mg BID, n=7) was 0 and the “TEAE Haematuria Grade 3” value (1200 mg BID, n=7) was 0. The “TEAE Headache Grade 1” value (1200 mg BID, n=7) was 0, the “TEAE Headache Grade 2” value (1200 mg BID, n=7) was 0 and the “TEAE Headache Grade 3” value (1200 mg BID, n=7) was 0. The “TEAE Hyperkalaemia Grade 1” value (1200 mg BID, n=7) was 0, the “TEAE Hyperkalaemia Grade 4” value (1200 mg BID, n=7) was 0 and the “TEAE Hypertension Grade 2” value (1200 mg BID, n=7) was 0. The “TEAE Hypertension Grade 3” value (1200 mg BID, n=7) was 1, the “TEAE Hyperuricaemia Grade 1” value (1200 mg BID, n=7) was 2 and the “TEAE Hyperuricaemia Grade 3” value (1200 mg BID, n=7) was 0.

— PMC7584476, “Safety and efficacy of BAY1436032 in IDH1-mutant AML: phase I study results” (Leukemia, 2020)
